Entries after “also recorded” stand apart in the source; their conditions may differ.
Key:
[1] = Novelty induced locomotion (NIL) test; format: in vivo, mice; conditions: for locomotion at the lower doses: 12.5 mg/kg and 25 mg/kg; for locomotion at highest dose: 50 mg/kg i.p., vs vehicle; for locomotion (total distance) in novel arena, dose dependence / time spent in the center of the arena: 12.5, 25, 50 mg/kg i.p., 30-minutes
Procedure: (§1) The head-twitch response assay was performed as described previously using both male and female C57BL/6J mice (3 each per treatment). The mice were obtained from Jackson Laboratory and were approximately 9 weeks old at the time of the experiments. Before injecting the mice, their baseline temperature was measured using an IR thermometer as described. Compounds were administered via intraperitoneal (i.p.) injection (5 ml kg-1) using 0.9% saline as the vehicle. Immediately after the animals were placed in an arena for 30-minutes where their locomotor activity was assessed using AnyMaze automated tracking software. The behavior was also videotaped and later scored by two blind overserves for head-twitch responses, the results were averaged. Upon completion of the novelty induced locomotion assay their temperature was measured at the 30-minute mark. The mice were then transferred to a holding cage with their other treatment matched cage mates and their temperature was measured at the 90 and 120-minute mark.

[2] = system: rat cortical neurons; test: Dendritogenesis (Sholl analysis) in cultured cortical neurons; format: cell-based; conditions: for dendritic complexity (Sholl analysis, Nmax): DIV 6 rat cortical cultures, 72-hours treatment, 10 uM and 100 nM, vs VEH; for dendritogenesis effect after ketanserin pretreatment: KTSN added 30 minutes before, 10-fold excess, DIV 6, 72-hours; for dendritic arbor complexity (Sholl analysis): increasing concentrations, efficacy in the nanomolar range
Procedure: For the dendritogenesis experiments conducted using cultured cortical neurons, E18 timed pregnant Sprague Dawley rats were obtained from Charles River Laboratories. Full culturing, staining and analysis experiments were performed as previously described with the exception that there was no media change during treatments. Dendrites were visualized using a chicken anti-MAP2 antibody (1:10,000; EnCor, CPCA-MAP2) as previously reported. DMSO and ketamine […] were used as vehicle and positive controls, respectively. For blocking experiments, ketanserin was added 30-minutes prior to addition of agonists in 10-fold excess.
(§2) Statistical Analysis. Appropriate samples sizes were estimated based on our previous experiences performing similar experiments. Treatments were randomized, and data were analyzed by experimenters blinded to treatment conditions. All comparisons were planned prior to performing each experiment. Statistical analyses were performed using GraphPad Prism (v.8.1.2). Data are represented as mean±s.e.m., unless otherwise noted, with asterisks indicating *P<0.05, **P<0.01, ***P<0.001 and ****P<0.0001.

[3] = Head-twitch response (HTR) assay; format: in vivo, mice; conditions: first 20-minutes in novel arena; 12.5, 25, 50 mg/kg i.p.
Procedure: as §1

[4] = system: rat cortical neurons; test: Spinogenesis (dendritic spine density) in mature cortical cultures; format: cell-based; conditions: for dendritic spine density: DIV 15 rat cortical neurons, 24-hours treatment; for spinogenesis effect after ketanserin pretreatment: KTSN 30-minute pretreatment, 10-fold excess, DIV 15, 24-hours
Procedure: Spinogenesis experiments were performed as previously described with the exception that cells were treated at DIV14 instead of DIV18 and then fixed on DIV15. The images were taken on a Nikon HCA Confocal microscope a with a 100x/NA 1.45 oil objective. DMSO and ketamine […] were used as vehicle and positive controls, respectively. For blocking experiments, ketanserin was added 30-minutes prior to addition of agonists in 10-fold excess.
as §2

[5] = Cued fear conditioning / fear extinction; format: in vivo, mice; conditions: for fear extinction test curve vs vehicle: 12.5 and 25 mg/kg curves; for freezing during extinction training (day 2): 12.5 and 25 mg/kg i.p. 30-min before extinction training; for conditioned freezing on extinction testing day (24-hours later, drug-free): treatment i.p. 30-min before extinction training on day 2, 16 CS tones
From the text: Mice were exposed to cued fear conditioning on day 1, fear extinction training on day 2 and extinction testing on Day 3. Mice were habituated to handling for 3 days before experimentation. On the day of the experiment mice were allowed to habituate to the behavior room for 1-hour before beginning the experiment. 15-minutes before starting the experiment, mice were separated out into individual holding cages.
Cued fear conditioning consisted of six pairings of a CS auditory cue (80-85 dB white noise, 15 s) and a co-terminating US footshock (0.85 mA and 2 s), each spaced 1.5 minutes apart. The fear conditioning apparatus (Med Associates model #MED-VFC2-SCT-R) consisted of a 30.5 cm×24.1 cm×21 cm internal soundproof chamber, with metal grated floors, an infrared camera, a sound generator, and a light source. Mice were initially placed in the conditioning apparatus and the first 1.5 minutes were stimulus free. After the last shock, the animals remained in the chambers for an additional 2 min before being returned to their home cages. […] Freezing responses for fear conditioning (day 1) are presented as the percentage of time spent freezing during the last 1.5 minutes after the last shock. The apparatus was cleaned with 70% EtOH in between trials.
Cued fear memory was assessed by exposing the animals to a novel context (lights off, A-frame insert, smooth plastic floor insert, additional vanilla odor) for 2 min prior to 16 presentations of auditory cues (80 dB white noise, 15 s) spaced 15 s apart. Freezing responses for cue testing (day 2 and 3) are presented as the percentage of time spent freezing during the tone presentations. The procedure was repeated on day 3 in the absence of drug.
Fear conditioning experiments were performed between the hours of 08:00-11:00. Freezing behavior was scored using Med Associates Video Freeze software v2.25 (motion threshold=100 au, detection method=linear, minimum freeze duration=15 frames, which is equal to a 0.5 s freeze). The apparatus was cleaned with 70% EtOH in between trials on day 1 and Sani-cloth gemicidal disposable cloths (PDI, Q89072) were used to clean the apparatus on days 2 and 3.

[6] = Body temperature assay (IR thermometer); format: in vivo, mice; conditions: for increase in body temperature (hyperthermia): 12.5, 25, 50 mg/kg i.p., measured for 2-hours
Procedure: as §1

[7] = system: 5-HT2A biosensor; test: psychLight 5-HT2A biosensor in cultured cortical neurons; format: cell-based; conditions: DIV 10-14 rat cortical neurons, 10 uM, vs vehicle
Procedure: E18 rat cortical neurons were plated at 60,000 cells/well in glass 96-well plates (P96-1.5H-N, Cellvis) coated with poly-D-lysine (Sigma, P6407-5MG). At day in vitro (DIV) 3-7 neurons were infected with AAV9_hSynapsin_psychLight2 (Neurophotonics-Viral Vector Core) or AAV9-hsyn-GRAB_5-HT1.0 (Addgene, 140552-AAV9) at an MOI of 70,000. Neurons were kept in the incubator for one week to allow for viral expression. On imaging day (DIV 10-14), media was aspirated and wells were washed (1×200 μL) with HBSS supplemented with 2 mM MgCl2 and 2 mM CaCl2. 50 μL HBSS was added to the wells of the assay plate and then imaged on a CellInsight CX7 HCA Platform (Thermo Fisher, CX7A1110) configured with a onstage incubator for live cell imaging (Thermo Fisher, NX7LIVE001) at 40×(N.A.=0.60) with 25 regions of interest (ROI) taken per well using an arbitrary ROI pattern for each well with no bias to location and no overlap of the ROIs (exposure=400 ms, LED power=100%). […]
Images were then analyzed using ImageJ by selecting ROIs surrounding individual neuronal cell bodies of the post-treatment images and recording the mean fluorescence, the same ROIs were applied to the pretreatment images to record the mean fluorescence. The […] values were calculated as previously reported.

[8] = patients, SR-MDMA paired psychotherapy; 25% in placebo group; cited from earlier work
[9] = biological target: T1, SERT (Homo sapiens, UniProt P31645); conditions: other studies; cited from earlier work
T1 construct: host or cells: HEK293T cells, transient transfection with Lipofectamine 3000

[10] = Tail suspension test; format: in vivo, mice; conditions: i.p. injection, tested after 24 h, vs vehicle
Procedure: Male C57/BL6J mice (9-10 weeks of age at time of experiment) were obtained from the Jackson Lab and housed in a UCD vivarium. […] All experiments were carried out by the same experimenter who performed the handling. Twenty-four hours after treatments, animals were subjected to a tail suspension test. Animals were suspended from their tails approximately 16 cm from the top of the apparatus and 25 cm from the bottom of the apparatus. Behavior was video recorded for 6 min and analyzed later by an experimenter blinded to treatment conditions. Immobility was defined as the amount of time spent not struggling or attempting to generate momentum and was scored for the entire 6 min period. All TST sessions were performed between the hours of 08:00 and 13:00.

[11] = biological target: T1, SERT; test: SERT efflux: [3H]5-HT release from SERT expressing HEK293T cells; format: cell-based; conditions: HEK293T cells transiently expressing SERT, 10 pM-100 uM
Procedure: HEK293T cells were grown in Dulbecco's Modified Eagle Media (DMEM) supplemented with 10% fetal bovine serum (FBS) and 1% penicillin-streptomycin. 24 hours prior to the experiment, cells were plated in 24-well plates at a density of 150,000 cells/well and concurrently transfected using Lipofectamine 3000 according to the manufacturer's protocol. Cells were transfected with hSERT-N1-pEYFP (Addgene #70105) or a GFP control plasmid (Lonza pmaxGFP vector). The next day the wells were washed (1×500 μL) with 1× Hank's Balanced Salt Solution supplemented with 2 mM MgCl2 and 2 mM CaCl2 (HBSS) and the plate was placed on a 37° C. water bath for the remainder of the experiment. 250 μL of HBSS containing 10 nM 5-[1,2-3H[N]]-hydroxytryptamine creatinine sulfate (NET498001MC, Lot: 2902700) was added to the wells and incubated for 15 minutes, allowing uptake into SERT expressing HEK cells. Uptake was terminated by aspiration of wells followed by washes (3×500 μL) with HBSS. […] 200 μL of media was collected from each well and placed into a scintillation vial containing 1 mL PerkinElmer Ultima Gold™ scintillation cocktail to serve as the efflux fraction. […] Radioactivity in the form of disintegrations per minute (DPM) was determined the following day with the use of a Beckman LS 6000 liquid scintillation counter. […] The GFP control cells were checked to ensure radioactivity was below background levels.

T1 sequence (P31645 whole entry): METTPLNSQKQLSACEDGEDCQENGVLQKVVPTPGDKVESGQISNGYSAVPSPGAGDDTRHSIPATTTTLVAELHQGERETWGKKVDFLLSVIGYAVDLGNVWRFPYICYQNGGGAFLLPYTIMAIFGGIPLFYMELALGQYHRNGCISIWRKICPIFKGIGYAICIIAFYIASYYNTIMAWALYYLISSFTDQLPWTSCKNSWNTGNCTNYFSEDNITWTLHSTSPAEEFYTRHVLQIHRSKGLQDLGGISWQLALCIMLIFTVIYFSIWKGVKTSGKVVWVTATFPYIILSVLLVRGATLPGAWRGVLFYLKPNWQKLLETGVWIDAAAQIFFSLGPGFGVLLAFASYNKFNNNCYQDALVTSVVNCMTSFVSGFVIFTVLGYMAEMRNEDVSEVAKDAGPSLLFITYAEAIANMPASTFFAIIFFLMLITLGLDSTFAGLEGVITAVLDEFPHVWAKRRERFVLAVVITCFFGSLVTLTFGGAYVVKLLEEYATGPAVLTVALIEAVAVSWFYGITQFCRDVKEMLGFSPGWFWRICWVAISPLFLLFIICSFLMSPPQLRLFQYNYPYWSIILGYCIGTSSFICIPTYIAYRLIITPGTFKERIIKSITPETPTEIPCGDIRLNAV

Molecule | locomotion at the lower doses [1] | locomotion at highest dose [1] | locomotion (total distance) in novel arena, dose dependence [1] | time spent in the center of the arena [1] | dendritic complexity (Sholl analysis, Nmax) [2] | dendritogenesis effect after ketanserin pretreatment [2] | dendritic arbor complexity (Sholl analysis) [2] | head twitch response (hallucinogenic potential) [3] | dendritic spine density [4] | spinogenesis effect after ketanserin pretreatment [4] | fear extinction test curve vs vehicle [5] | freezing during extinction training (day 2) [5] | conditioned freezing on extinction testing day (24-hours later, drug-free) [5] | increase in body temperature (hyperthermia) [6] | psychlight 5-HT2A biosensor response [7] | other results
R-3,4-Methylenedioxy methamphetamine [R-MDMA, reference compound] | neither of them altered changes in locomotion or had psychostimulant properties | exhibits psychostimulant effects | dose dependent increase in locomotion | all doses decreased time spent in the center | increases in dendritic complexity | blocked by ketanserin | robustly increased dendritic arbor complexity | Neither compound elicited a significant HTR | increases dendritic spine density, comparably to R-MDMA | KTSN blocks the spinogenesis effects | statistically lower than vehicle control | decreased freezing during extinction training and testing | decreased freezing during extinction training and testing | Neither compound induced any increases in body temperature | Neither LED nor R-MDMA induced a significant response | –
CNC(C)Cc1ccc2c(c1)OCO2 (racemic) [SR-MDMA, S,R(+/−)-3,4-methylenedioxymethamphetamine] | – | – | – | – | – | – | – | – | – | – | – | – | – | – | – | response rate in decreasing the symptoms of PTSD [8]: 83%
CC(Cc1ccc2c(c1)OCO2)N(C)C (racemic) [racemic version of LED] | – | – | – | – | – | – | – | – | – | – | – | – | – | – | – | 5-HT uptake inhibition and release [9]: moderate ability to inhibit uptake of 5-HT as well as promote its release
C[C@H](Cc1ccc2c(c1)OCO2)N(C)C [LED, (R)-1-(benzo[d][1,3]dioxol-5-yl)-N,N-dimethylpropan-2-amine] | neither of them altered changes in locomotion or had psychostimulant properties | significant decrease in locomotion | dose dependent decrease in locomotion | only the highest doss caused a decrease in time spent in the center | increases in dendritic complexity | blocked by ketanserin | robustly increased dendritic arbor complexity | Neither compound elicited a significant HTR | increases dendritic spine density | KTSN blocks the spinogenesis effects | statistically lower than the vehicle control curve | neither dose influenced freezing during extinction training | the 12.5 mg/kg dose of LED resulted in reduced freezing on testing day | Neither compound induced any increases in body temperature | Neither LED nor R-MDMA induced a significant response | promotion of plasticity (Sholl analysis), comparison of enantiomers and racemates ([2]; cultured cortical neurons, FIG. 5, listed as R-MDDMA): more effect at promoting plasticity than either the S-enantiomer or the racemic mixture; also recorded: more effective than racemic MDMA; antidepressant behavioral effect (tail suspension test immobility) [10]: produces antidepressant behavioral effects; fear extinction, females only ([5]; separated by sex, females): females display enhanced extinction with the 12.5 mg/kg dose; fear extinction, males only ([5]; separated by sex, males): males display enhanced extinction with the 25 mg/kg dose; body temperature relative to vehicle ([6]; 50 mg/kg i.p., 30-minute time point): significant decrease in temperature; [3H]5-HT release (efflux) [11]: failed to induce [^3H]5-HT release

— patent US20250122164A1, “N,N-[…] ANALOGS FOR TREATING BRAIN DISORDERS” (The Regents of the University of California, priority 2021, published 2025)
